Assay results from PubChem BioAssay (NCI).
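48-hour exposure; five concentrations; linearly interpolated endpoints. The concentration for 50% growth inhibition is given as GI50. TGI: concentration producing complete growth inhibition.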 Where a SMILES comes first, the peptide text is derived from it. The star is where a group is joined. Boc = CC(C)(C)OC(=O)*; OBn = c1ccc(CO*)cc1

How the values were obtained:
Assay in all cases: NCI anticancer screen, dose series, 48 h
[1] = test system: BT-549 breast
[2] = test system: CAKI-1 renal
[3] = test system: CCRF-CEM leukemia
[4] = test system: EKVX NSCLC
[5] = test system: HCC-2998 colon
[6] = test system: MDA-MB-435
[7] = test system: NCI-H226 lung
[8] = test system: NCI-H522 lung
[9] = test system: SF-268 CNS
[10] = test system: SF-539 CNS
[11] = test system: SK-MEL-28 melanoma
[12] = test system: SNB-19 CNS
[13] = test system: SNB-75 CNS
[14] = test system: SR leukemia
[15] = test system: SW-620 colon
[16] = test system: U251 CNS
[17] = test system: SN12C renal

SMILES	TGI [1] [µM]	TGI [2] [µM]	TGI [3] [µM]	TGI [4] [µM]	TGI [5] [µM]	TGI [6] [µM]	TGI [7] [µM]	TGI [8] [µM]	TGI [9] [µM]	TGI [10] [µM]	TGI [11] [µM]	TGI [12] [µM]	TGI [13] [µM]	TGI [14] [µM]	TGI [15] [µM]	TGI [16] [µM]	TGI [17] [µM]	GI50 [15] [µM]
CCOc1cc2c(cc1OC(C)=O)C(=O)CC[C@H]1C3CC[C@H](OC(C)=O)[C@@]3(C)CC[C@H]21 (stereo partly drawn)	> 100	> 100	> 100	> 100	> 100	> 100	> 100	> 100	> 100	> 100	> 100	> 100	> 100	> 100	> 100	> 100		
O=C1/C(=C/c2ccccc2)CCC/C1=C\c1ccc(O)c(CN2CCCCC2)c1	10.5	18.8	> 100	18.1	5.46	7.5	16.9	7.22	17	8.95	17.5	26	17.1	6.38	5.94	11	9.53	
CCCCOCCOC1=CC(=O)c2c(O)ccc(O)c2C1=O	2.98	3.23	4.04	3.08	3.3	0.334	3.14	2.93	3.65	2.94	3	3.12	2.91	5.11	2.84	3.07	3.03	
CC(NC(=O)C(Cc1ccccc1)NC(=O)C(Cc1ccccc1)NC(=O)OC(C)(C)C)C(=O)OCc1ccccc1 (stereo not drawn) (Boc-Phe-Phe-Ala-OBn; configuration not given here)	> 100		> 100	> 100	> 100	> 100	84	> 100	> 100	> 100			> 100	> 100	> 100	> 100	> 100	
O=C(CNC(=O)OCc1ccccc1)NCCCCC(NC(=O)OCc1ccccc1)C(=O)NC(CCCCNC(=O)CNC(=O)OCc1ccccc1)C(=O)OCc1ccccc1 (stereo not drawn)	> 62.5	> 62.5	> 62.5		> 62.5	> 62.5	> 62.5	> 62.5	> 62.5		> 62.5	> 62.5	> 62.5	> 62.5	> 62.5	> 62.5	> 62.5	
c1ccc2c(c1)nc1n2C2CCC(C2)N1 (stereo not drawn)	> 10	> 10	> 10	> 10	> 10	> 10	> 10	> 10	> 10	> 10	> 10	> 10	> 10	> 10	> 10	> 10	> 10	
Cc1n[nH]c(=O)n1/N=C\CC/C=N\n1c(C)n[nH]c1=O	> 100	> 100	> 100	> 100	> 100	> 100	> 100	> 100	> 100	> 100	> 100	> 100	> 100	> 100	> 100	> 100	> 100	
CC(C)C/C=C/C1=NN(c2cccc(S(=O)(=O)O)c2)C2(C1)SCC(=O)N2c1nc2ccccc2s1 (stereo not drawn)	> 100	> 100	64.4	> 100	> 100	84.6	> 100	60.2	> 100	> 100	> 100	> 100	> 100	74.5	> 100	> 100	> 100	
COC(=O)CC(=O)Nc1sccc1S(=O)(=O)c1ccccc1	> 100	> 100	> 100	> 100	41.6	> 100	95	> 100	> 100	> 100	> 100	> 100	> 100	> 100	> 100	> 100	> 100	
CCOP(=O)(OCC)C1=C(c2ccccc2)OC(N)=C(C#N)C1c1ccc(Cl)cc1 (stereo not drawn)	> 100	> 100	> 100	> 100	> 100	> 100	> 100	> 100	> 100	> 100	> 100	> 100	> 100	> 100	> 100	> 100	> 100	
C=C1C(=O)O[C@H]2[C@H]3O[C@@H](C[C@@H]12)[C@@]1(C)CC[C@H](O1)C(C)=CCC[C@H]3C	2.07	2.56	1.98	3.32	3.25	2.92	7.02	3.42	2.95	3.07	3.36	19	5.65	0.28	7.41	2.97	4.05	
O=C(/C=C/c1ccccc1)CSc1nc2ccc(I)cc2c(=O)n1Cc1ccccc1	> 100	3.74	> 59.2	> 37.2	66.9	> 100	> 84.4	> 89.5	51.9	> 100	> 100	> 100	> 95.7	33.3	> 100	> 100	30.8	
CN(C)CCn1c(=O)c2ccc3c4c(nn3CCN(C)C)c3cc(O)ccc3n(c1=O)c24	3.66	0.291	0.656	0.366	0.176	0.641	1.44	0.0292	0.591	3.15	1.58	1	1.42	0.0505	3.61		0.842	
NNCCc1n[nH]c(=O)n1N	> 100	> 100	> 100	> 100	> 100	> 100	> 100	> 100	> 100	> 100	> 100	> 100	> 100	> 100	> 100	> 100	> 100	
O=C1NC(=O)C(COCc2ccccc2)C2=C1SCCC2 (stereo not drawn)	> 100	> 100	> 100	> 100	> 100	> 100	> 100	> 100	> 100	> 100	> 100	> 100	> 100	> 100	> 100	> 100		
CC1=N[C@](C)(C2CC3C=CC2C3=O)COC1=O (stereo partly drawn)	> 100	> 100	> 100	> 100	> 100	> 100	> 100	> 100	> 100	> 100	> 100	> 100	> 100	> 100	> 100	> 100	> 100	
Cc1cc2nc(-c3c(F)cccc3F)n(Cc3c(F)cccc3F)c2cc1C	27.9	37.7	60.9	22.7	21.4	32.8	35.1	27.1	42.7	34.3	42.2	42.7	26.1	30.4	35	24.1	33.5	
CCOC(=O)/C=C(\C(=O)OCC)n1ccc(=O)n(CC(=O)OCC)c1=O	29.1	1.68	3.29	35.5	32.2	16.4	12.8	3.25	41.1	32.3	15.7	36.7	24.5	5.27	2.72	19.5	9.38	1.42
O=c1[nH]c(-c2ccccc2)nc2c1sc1nc3ccccc3n12	> 100	> 100	> 100	> 100	> 100	> 100	> 100	> 100	> 100	> 100	> 100	> 100	> 100	> 100	> 100	> 100	> 100	
O=C1OCC/C1=C/c1ccc(N=Nc2c(O)ccc3ccccc23)cc1	49.9	34.8	53.5	41.8	39.7	56.5	36	41.8	44.7	36.6	38.4	> 100	49.2	37.5	40	39.2	45.1	
c1ccc2cc(CNCCOCCOCCNCc3ccc4ccccc4c3)ccc2c1	3.3	3.68	4.46	6.13	0.54	3.81	9.9	3.44	4.43	3.69	4.35	5.31	4.12	5.45	4.62	4.07	4.18	
NC(CCCCNC(=O)CNC(=O)OCc1ccccc1)C(=O)NC(CCCCNC(=O)CNC(=O)OCc1ccccc1)C(=O)NC(CCCCNC(=O)CNC(=O)OCc1ccccc1)C(=O)NC(CCCCNC(=O)CNC(=O)OCc1ccccc1)C(=O)NC(CCCCNC(=O)CNC(=O)OCc1ccccc1)C(=O)NC(CCCCNC(=O)CNC(=O)OCc1ccccc1)C(=O)O (stereo not drawn)	> 75	> 75	> 75		> 75	> 75	> 75	> 75	> 75		> 75	> 75	> 75	> 75	> 75	> 75	> 75	
CC(=O)O[C@H]1CCn2c3c(c(C)c21)C(=O)C(N1CC1)=C(C)C3=O	> 10	> 10	> 10	> 10	> 10	> 10	> 10	> 10	> 10	> 10		> 10	> 10	> 10	> 10	> 10	> 10	
CCCCCC[C@H]1C(=O)O[C@H](C)[C@H](NC(=O)c2cccc(NC=O)c2OC)C(=O)O[C@@H](C)[C@@H]1OC(=O)CC(C)C (tested in a mixture with another compound)	> 100	57.3	85.3	> 100	> 100	> 100	> 100	> 100	> 100	78.3	> 100			36	> 100	34.1	> 100	
COC(=O)C1=C(C)NC(C)=C(C(=O)OC)C1c1cccc(NO)c1	32.5	26.1	> 100	70.9	> 100	30.9	40.7	20.8	30.6	32.6	28.3	> 100		> 100	28.5	29.8	32.9	
COC(=O)C1CCC(=O)N1C(c1ccccc1)c1cc(OC)c(OC)c(OC)c1 (stereo not drawn)	> 100	> 100	> 100	> 100	> 100	59.7	> 100	> 100	> 100	> 100	> 100	> 100		> 100	> 100	> 100	> 100	
